Test results from patent publication US20240353397A1, “MARKERS OF RESISTANCE AND DISEASE TOLERANCE AND USES THEREOF” (priority 2021, published 2024).

Legend:
resistance (R) level = assay: Connectivity map drug screen: effect of each drug on resistance level; assay type: cell-based; settings: for Effect on resistance level: t-test, positive/negative sign = increasing/decreasing level following drug treatment; for effect on resistance: connectivity map drug screen, at least 6 cell lines of different tissues
From the text: (§1) Using the drug screen of the connectivity map [Aravind Subramanian et al., Cell 171 (6): 1437-1452 (2017)], the effect of each drug on resistance and tolerance was next analyzed in at least 6 cell lines of different tissues. Identification of multiple drugs that display an effect on resistance/tolerance-related diseases allows (i) repurposing of drugs, and (ii) personalized prioritization of drugs. For instance, the screen tested three P glycoprotein inhibitors: zosuquidar, elacridar, and dofequidar. […] Thus, for specific disease in which P glycoprotein inhibitor is required, it is possible to prioritize drugs for each patient based on its baseline combination of resistance and tolerance state.

[1] = test system: disease tolerance (T) level; assay: Connectivity map drug screen: effect of each drug on tolerance level; assay type: cell-based; settings: for Effect on tolerance level: t-test, positive/negative sign = increasing/decreasing level following drug treatment; for effect on tolerance: connectivity map drug screen, at least 6 cell lines of different tissues, all tissues under study
From the text: as §1

Compound	Effect on resistance level (resistance (R) level; tissue: breast)	Effect on resistance level (resistance (R) level; tissue: kidney)	Effect on resistance level (resistance (R) level; tissue: large intestine)	Effect on resistance level (resistance (R) level; tissue: pancreas)	Effect on resistance level (resistance (R) level; tissue: prostate)	Effect on resistance level (resistance (R) level; tissue: skin)	Effect on tolerance level ([1]; tissue: breast)	Effect on tolerance level ([1]; tissue: kidney)	Effect on tolerance level ([1]; tissue: large intestine)	Effect on tolerance level ([1]; tissue: pancreas)	Effect on tolerance level ([1]; tissue: prostate)	Effect on tolerance level ([1]; tissue: skin)	effect on resistance (resistance (R) level)	effect on tolerance [1]
O[C@@H](COc1cccc2ncccc12)CN1CCN([C@@H]2c3ccccc3[C@@H]3[C@H](c4ccccc42)C3(F)F)CC1 [zosuquidar]	0.13 signed −log p-values	−2.54 signed −log p-values	−7.65 signed −log p-values	−2.82 signed −log p-values	−2.05 signed −log p-values	−6.00 signed −log p-values	11.19 signed −log p-values	5.15 signed −log p-values	5.89 signed −log p-values	5.81 signed −log p-values	5.97 signed −log p-values	2.91 signed −log p-values		
COc1cc2c(cc1OC)CN(CCc1ccc(NC(=O)c3cccc4c(=O)c5cccc(OC)c5[nH]c34)cc1)CC2 [elacridar]	7.26 signed −log p-values	6.87 signed −log p-values	10.56 signed −log p-values	2.33 signed −log p-values	4.37 signed −log p-values	4.66 signed −log p-values	1.84 signed −log p-values	8.48 signed −log p-values	13.47 signed −log p-values	−0.10 signed −log p-values	−1.43 signed −log p-values	2.77 signed −log p-values	increasing resistance	increased tolerance
O=C(C(c1ccccc1)c1ccccc1)N1CCN(CC(O)COc2cccc3ncccc23)CC1 (stereo not shown) [dofequidar]	0.89 signed −log p-values	7.33 signed −log p-values	9.14 signed −log p-values	5.84 signed −log p-values	3.47 signed −log p-values	9.17 signed −log p-values	6.29 signed −log p-values	2.40 signed −log p-values	6.03 signed −log p-values	2.60 signed −log p-values	1.54 signed −log p-values	0.89 signed −log p-values	increasing resistance	increased tolerance
